This note sets out measurements from patent US20230048888A1, “USE OF TRIAZOLOTRIAZINE DERIVATIVE IN TREATMENT OF DISEASES” (ZHEJIANG VIMGREEN PHARMACEUTICALS, LTD., priority 2019, published 2023).

As a reminder, the AUC(0-t) is exposure summed from dosing to a finite time, without extrapolation to infinity. Broadly, the Cmax is the highest concentration seen after dosing. A word on the IC50: it is the concentration that inhibits the measured activity by half.

Like-named read-outs stand apart in the source and are kept apart here.

Data set [1] is described as follows: Pharmacokinetics of test compounds in SD rats (15.2; IV and PO, mixed administration). The following applies: for Cl_pred / AUC(0-t) / Cmax / half-life: IV; for AUC(0-t) / Cmax / half-life: male, Sprague-Dawley, rat, plasma; for half-life: read-out: T½ (converted). Format: in vivo.
Data set [2] concerns 6-OHDA-induced contralateral rotation. In words: 6-OHDA-induced rat rotation experiment, first stage (number of rotations). The class given is in vivo, Wistar rats. An excerpt: After long-term use of levodopa, patients with Parkinson's disease are prone to drug resistance (end-of-dose phenomenon). That is, the duration of its pharmaceutical effect tends to gradually become shorter (shortened opening period), its efficacy will become weaker and weaker, and the symptoms of the patients are becoming more and more uncontrollable. By the combined use with the test compound, the efficacy of levodopa can be restored for patients with Parkinson's disease in the off phase, who have already experienced the end-of-dose phenomenon. The rat model of Parkinson's disease was constructed by fixed-point injection of 6-hydroxydopamine (6-OHDA) to damage the substantia nigra striatum, and then the animals were administrated with levodopa (L-DOPA)/Benserazide (BID) for a long term (3-4 weeks as planned).
There should be at least an interval of 1 day between rotation tests for respective doses. A total of 6 tests were carried out in the first stage.
[…] injection volume: each rat was injected with 4 μl of 6-OHDA solution (2.5 μg/μl) on the left medial forebrain bundle (MFB).
Coordinates for injecting […]: by taking the anterior fontanelle as a standard reference point and with reference to the stereotactic map of rat brain, the injection was performed on the left medial forebrain bundle at: anterior(A), −2.5 mm; lateral (L), +2.0 mm; ventral (V), −8.5 mm.
[…] injection speed: the injection speed was 1 μl/min; after injection, the needle was left in situ for 5 min, and then slowly withdrawn at a speed of 1 mm/min; and the wound was then sutured. Grouping and administration were carried out according to the method of experimental design.
In the first stage, only the number of rotations of the animal was tested, and only the rotation response time was tested in the second stage.
The test results are represented as “mean±standard deviation”. The data was statistically analyzed by the SPSS16.0 software package. One-way ANOVA, paired sample T test and independent sample T test were used for comparison, with P<0.05 showing a statistical difference.

The target in data set [3] is T1, Human adenosine ADORA2A receptor membrane protein (Homo sapiens, UniProt P29274).
T1 construct: purchased PerkinElmer RBHA2AM400UA
In words: Radioisotope ligand competitive binding, ADORA2A ([3H] CGS-21680). The following applies: ADORA2A (IC50, nM, n = 3), binding test. As for the experimental part:
ADORA2A: 50 mM Tris-HCl pH 7.4, 10 mM MgCl2, 1 mM EDTA
4) Preparation of compounds: the test compounds and the reference compounds were separately diluted with 100% DMSO.
1 μL of a sample to be tested and 1 μL of a reference compound were added to a 96-well plate in sequence. […] 100 μL of cells and 100 μL of isotopes were added to all experimental wells. The 96-well plate was sealed; ADORA1, ADORA2B, and ADORA3 were incubated for 1 hour on a shaker (300 rpm) at room temperature (22° C.); and ADORA2A was incubated for 2 hours on a shaker (300 rpm) at room temperature (22° C.). At the same time, a GF/C filter plate was soaked with ADORA1, ADORA2A, ADORA2B, and ADORA3 by using 0.3% PEI for at least 30 minutes at room temperature, at 50 μL/well. After the incubation was completed, the incubated reaction system was collected onto the GF/C filter plate with a Harvester, washed 4 times and then dried for 0.5 hours in an oven at 50° C. The bottom of the dried GF/C filter plate was sealed with a film, 50 μL of scintillation solution was added to each well, which was then sealed with a Top-seal-A film. With Microbeta readings, the data was analyzed by GraphPad Prism 5.0.
% Inhibition=100×(1−(Sample_raw value−Low control_Average)/(High control_Average−Low control_Average))
The data was fitted with “log(inhibitor) vs response-variable slope” in GraphPad Prism 5.0 to obtain IC50.

A further data set concerns the target T2, human ADORA2A (Homo sapiens, UniProt P29274).
T2 construct: host or cells: CHO
Briefly: Calcium flow test (FLIPR), ADORA2A stably transfected CHO. The settings on record: Table 9. Format: cell-based. An excerpt:
The binding of the A2AR agonist to A2AR could activate a downstream pathway to increase the intracellular calcium ion concentration. The antagonist would competitively occupy the binding site where the agonist binds to A2AR, thereby interrupting the intracellular signal transduction and leading to a change in the intracellular calcium ion concentration. By detecting the strength of the intracellular calcium ion signal, the antagonistic activities of the compound on human ADORA1, ADORA2A, ADORA2B and ADORA3 adenosine receptors were determined. […]
7) The FLIPR instrument software was operated; following a set program, 10 μL of experimental buffer salt solution was added to the cell plate; and fluorescence signals were read. Then, 10 μL of the reference compound of agonist at a predetermined concentration was added to the cell plate, and the fluorescence signals were read. After reading, data was exported by means of “Max-Min” and “Read 91 to Maximum allowed” in the software, the EC80 of each cell line was calculated, and an agonist with a concentration of 6×EC80 was prepared.
9) The FLIPR instrument software was operated; following a set program, 10 μL of the test compound and 10 μL of the reference compound were added at a predetermined concentration to the cell plate; and the fluorescence signals were read. […]

T1 sequence (P29274 whole entry): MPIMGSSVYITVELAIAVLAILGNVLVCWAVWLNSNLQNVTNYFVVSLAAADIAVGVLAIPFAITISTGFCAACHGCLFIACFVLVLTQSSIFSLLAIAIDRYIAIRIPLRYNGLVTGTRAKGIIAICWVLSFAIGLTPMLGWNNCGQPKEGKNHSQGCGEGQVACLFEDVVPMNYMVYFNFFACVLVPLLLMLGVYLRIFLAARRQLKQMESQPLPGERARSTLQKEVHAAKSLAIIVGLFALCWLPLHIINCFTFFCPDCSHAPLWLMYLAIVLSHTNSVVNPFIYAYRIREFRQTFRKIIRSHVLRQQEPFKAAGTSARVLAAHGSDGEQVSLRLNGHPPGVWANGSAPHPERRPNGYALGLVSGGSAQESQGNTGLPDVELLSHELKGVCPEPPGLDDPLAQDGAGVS
T2 sequence (P29274 whole entry): as above

For the compound `COCCNc1ccc(CCNc2nc(N)n3nc(-c4ccco4)nc3n2)cc1` [Compound 27, 2-(furan-2-yl)-N5-(4-((2-methoxyethyl)amino)phenethyl)-[1,2,4]triazolo[1,5-a][1,3,5]triazine-5,7-diamine], in data set [1] (1 mg/kg), the Cl_pred turned out to be 188.857 mL/min/kg, the AUC(0-t) was 83.8 ng·h/mL, the Cmax is 139 ng/mL and the half-life was 28.2 min.

`CC(=O)O.Nc1nc(NCCc2ccc(NC3COC3)cc2)nc2nc(-c3ccco3)nn12` [Acetate of Compound 22, 2-(furan-2-yl)-N5-(4-(oxetane-3-ylamino)phenethyl)-[1,2,4]triazolo[1,5-a][1,3,5]triazine-5,7-diamine acetate]: the “Total number of rotations (60 min)” value came out at 41.4 ± 80.8 in data set [2] (1 mg/kg oral + L-DOPA (5 mg/kg)/Benserazide (1.25 mg/kg) i.p.); 36.6 ± 46.3 in data set [2] (3 mg/kg oral + L-DOPA (5 mg/kg)/Benserazide (1.25 mg/kg) i.p.); 109.4 ± 205.2 in data set [2] (10 mg/kg oral + L-DOPA (5 mg/kg)/Benserazide (1.25 mg/kg) i.p.); 285.2 ± 283.8 in data set [2] (30 mg/kg oral + L-DOPA (5 mg/kg)/Benserazide (1.25 mg/kg) i.p.); 379.3 ± 326.4 in data set [2] (100 mg/kg oral + L-DOPA (5 mg/kg)/Benserazide (1.25 mg/kg) i.p.); 7.7 ± 5.6 in data set [2] (single oral 1 mg/kg alone). The “Total number of rotations (60 min)” value is given as 17.1 ± 18.7 in data set [2] (single oral 3 mg/kg alone), 11.6 ± 13.9 in data set [2] (single oral 10 mg/kg alone), 30.7 ± 22.5 in data set [2] (single oral 30 mg/kg alone) and 35.2 ± 18.8 in data set [2] (single oral 100 mg/kg alone).

As to `Nc1nc(NCCc2ccc(NC3COC3)cc2)nc2nc(-c3ccco3)nn12` [Compound 22, 2-(furan-2-yl)-N5-(4-(oxetan-3-ylamino)phenethyl)-[1,2,4]triazolo[1,5-a][1,3,5]triazine-5,7-diamine], the results for the IC50 (in data set [3] (Table 10 (IC50)); in data set [3] (Table 11); at human ADORA2A) were 0.96 ± 0.11 nM, 0.85 nM and 0.35 ± 0.07 nM, respectively.

`Cn1nnc(-c2ccc(CCNc3nc(N)n4nc(-c5ccco5)nc4n3)cc2)n1` [Compound 40, N5-(4-(2-methyl-2H-tetrazol-5-yl)phenethyl)-2-(furan-2-yl)-[1,2,4]triazolo[1,5-a][1,3,5]triazine-5,7-diamine]: in data set [1] (1 mg/kg), the Cl_pred worked out at 11.834 mL/min/kg, the AUC(0-t) turned out to be 1410 ng·h/mL, the concentration peaked (Cmax) at 1280 ng/mL and the half-life was 46.8 min. In data set [1] (1.64 mg/kg), the Cl_pred came out at 27.0478 mL/min/kg, the AUC(0-t) worked out at 1010 ng·h/mL, the Cmax amounted to 1310 ng/mL and the half-life is 31.8 min. In addition, in data set [1] (PO, […]), the Cl_F_pred amounted to 23.254 mL/min/kg and the F stood at 116.3%. Also, the concentration for half-maximal inhibition (IC50) in data set [3] (Table 10 (IC50)) was 1.85 ± 0.27 nM. In addition, the IC50 in data set [3] (Table 11) came to 1.64 nM. Further, the IC50 at human ADORA2A amounted to 1.17 ± 0.62 nM.
